Earlier results as cited in US20060069075A1, “Methods for treating dry eye” (priority 2001, published 2006).

Tested on: human conjunctival epithelial cells
Conditions: background statement, no data given

CCCCC[C@H](O)/C=C/C=C\C/C=C\C/C=C\CCCC(=O)O [15-HETE]
secretion of mucin-1 (MUC-1): increase the secretion of mucin-1 (MUC-1)
